Where two headings read alike, the source gives them in different places.
Legend:
AktK = AktK (Homo sapiens, UniProt P31749); assay: Luciferase-coupled chemiluminescence kinase assay (ATP consumption); format: biochemical; settings: read-out: AKT-1 IC50
Protocol: (§1) One measure of inhibition is Ki. […] The Ki for a compound is determined from the IC50 based on three assumptions. First, only one compound molecule binds to the enzyme and there is no cooperativity. […] Third, the enzymatic rate of the enzyme-inhibitor complex is zero. The rate data (i.e. compound concentration) are fitted to the equation: […]
(§2) Luciferase-Coupled Chemiluminescence Assay Protocol
(§3) Kinase activity is measured as the percent of ATP consumed following the kinase reaction using luciferase-luciferin-coupled chemiluminescence. Reactions were conducted in 384-well white, medium binding microtiter plates (Greiner). Kinase reactions were initiated by combining test compounds, ATP and kinase in a 20 uL volume. The reaction mixture was incubated at ambient temperature for 3 hrs. For p70S6K and/or AktK, 2.5-5 nM of the enzyme was pre-incubated with compound in 20 mM Tris pH 7.5, 10 mM MgCl2, 0.03% TX-100, and 1 mM DTT for 30 minutes at room temperature. Following the kinase reaction, a 20 μL aliquot of luciferase-luciferin mix was added and the chemiluminescence signal measured using a Victor^2 plate reader (Perkin Elmer). The luciferase-luciferin mix contained 50 mM HEPES, pH 7.8, 67 mM oxalic acid (pH 7.8), 5 (or 50) mM DTT, 0.4% Triton X-100, 0.25 mg/mL coenzyme A, 63 μM AMP, 28 μg/1 mL luciferin and 40,000 units/mL luciferase. Total ATP consumption was limited to 25-60% and the IC50 values correlate well with those determined by radiometric assays.

p70S6K = p70S6K (Homo sapiens, UniProt P23443); assay: as above; format: biochemical
Protocol: as §1, §2, §3

Sequence of AktK (P31749 whole entry): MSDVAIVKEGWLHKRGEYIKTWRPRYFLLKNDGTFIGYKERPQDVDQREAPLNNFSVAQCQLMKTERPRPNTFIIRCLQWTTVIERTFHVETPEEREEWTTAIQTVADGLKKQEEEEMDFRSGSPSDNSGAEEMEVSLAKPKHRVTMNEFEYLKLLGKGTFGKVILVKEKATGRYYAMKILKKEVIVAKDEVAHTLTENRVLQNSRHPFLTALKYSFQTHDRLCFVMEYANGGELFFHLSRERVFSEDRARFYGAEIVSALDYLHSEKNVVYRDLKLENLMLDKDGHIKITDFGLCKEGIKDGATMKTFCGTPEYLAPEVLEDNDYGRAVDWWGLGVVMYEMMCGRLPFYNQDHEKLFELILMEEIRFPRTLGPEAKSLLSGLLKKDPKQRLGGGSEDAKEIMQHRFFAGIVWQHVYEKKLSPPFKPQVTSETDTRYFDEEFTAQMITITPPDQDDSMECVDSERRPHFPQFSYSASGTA
Sequence of p70S6K (P23443 whole entry): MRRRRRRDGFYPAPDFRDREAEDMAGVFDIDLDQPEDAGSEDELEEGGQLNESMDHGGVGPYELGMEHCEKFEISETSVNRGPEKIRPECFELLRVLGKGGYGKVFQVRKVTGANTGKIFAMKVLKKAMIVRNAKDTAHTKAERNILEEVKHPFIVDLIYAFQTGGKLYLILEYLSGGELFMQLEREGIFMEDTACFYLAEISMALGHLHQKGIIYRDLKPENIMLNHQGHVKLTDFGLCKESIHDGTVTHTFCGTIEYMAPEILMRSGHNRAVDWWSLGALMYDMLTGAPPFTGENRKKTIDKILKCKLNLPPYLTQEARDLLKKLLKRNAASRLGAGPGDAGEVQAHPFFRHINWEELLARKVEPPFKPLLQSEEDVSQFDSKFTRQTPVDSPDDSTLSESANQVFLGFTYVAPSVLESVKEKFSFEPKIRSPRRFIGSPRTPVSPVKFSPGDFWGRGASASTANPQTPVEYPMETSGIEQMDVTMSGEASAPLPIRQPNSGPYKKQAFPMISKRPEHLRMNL

Row | SMILES | IC50 (AktK; Table 1, class symbols per key) | IC50 (p70S6K; Table 1, class symbols per key) | IC50 (AktK) | IC50 (p70S6K)
1 | Cc1c(CCCN2CCCC2)cc(Cl)cc1N1CCN(c2ncnc3[nH]nc(C(F)(F)F)c23)CC1 [Entry 61, 4-{4-[5-chloro-2-methyl-3-(3-pyrrolidin-1-ylpropyl)phenyl]piperazin-1-yl}-3-(trifluoromethyl)-1H-pyrazolo[3,4-d]pyrimidine] | < 0.1 µM | < 0.1 µM | – | –
2 | Cc1ccc(Cl)cc1N1CCN(c2ncnc3[nH]nc(-c4cccc(N)c4)c23)CC1 [Entry 339, 3-{4-[4-(5-chloro-2-methylphenyl)piperazin-1-yl]-1H-pyrazolo[3,4-d]pyrimidin-3-yl}aniline] | – | – | 1 to 10 µM | 0.1 to 1 µM
3 | Cc1c(NCCN2CCCC2)cc(OCC(C)C)cc1N1CCN(c2ncnc3[nH]nc(Br)c23)CC1 [Entry 184, 3-[4-(3-bromo-1H-pyrazolo[3,4-d]pyrimidin-4-yl)piperazin-1-yl]-2-methyl-5-[(2-methyl-propyl)oxy]-N-(2-pyrrolidin-1-ylethyl)aniline] | < 0.1 µM | < 0.1 µM | – | –
4 | Cc1c(NCCN2CCCC2)cc(CCC(C)(C)C)cc1N1CCN(c2ncnc3[nH]nc(Br)c23)CC1 [Entry 244, 3-[4-(3-bromo-1H-pyrazolo[3,4-d]pyrimidin-4-yl)piperazin-1-yl]-5-(3,3-dimethylbutyl)-2-methyl-N-(2-pyrrolidin-1-ylethyl)aniline] | < 0.1 µM | < 0.1 µM | – | –
5 | Cc1c(Br)cc(OCC(F)(CF)CF)cc1N1CCN(c2ncnc3[nH]nc(Br)c23)CC1 [Entry 250, 3-bromo-4-[4-(3-bromo-5-{[2,3-difluoro-2-(fluoromethyl)propyl]oxy}-2-methylphenyl)pipera-zin-1-yl]-1H-pyrazolo[3,4-d]pyrimidine] | 0.1 to 1 µM | < 0.1 µM | – | –
6 | CCc1n[nH]c2ncnc(N3CCN(c4cc(OCC(F)(CF)CF)cc(Br)c4C)CC3)c12 [Entry 251, 4-[4-(3-bromo-5-{[2,3-difluoro-2-(fluorometh-yl)propyl]oxy}-2-methylphenyl)piperazin-1-yl]-3-ethyl-1H-pyrazolo[3,4-d]pyrimidine] | 0.1 to 1 µM | < 0.1 µM | – | –
7 | Cc1c(NCCN2CCCC2)cc(S(C)(=O)=O)cc1N1CCN(c2ncnc3[nH]nc(Br)c23)CC1 [Entry 261, 3-[4-(3-bromo-1H-pyrazolo[3,4-d]pyrimidin-4-yl)piperazin-1-yl]-2-methyl-5-(methylsulfonyl)-N-(2-pyrrolidin-1-ylethyl)aniline] | 0.1 to 1 µM | < 0.1 µM | – | –
8 | Clc1ccccc1N1CCN(c2ncnc3[nH]cnc23)CC1 [Entry 299, 6-[4-(2-chlorophenyl)piperazin-1-yl]-9H-purine] | – | – | ≥ 10 µM | 1 to 10 µM
9 | COCCOc1cc(NCCN2CCCC2)c(C)c(N2CCN(c3ncnc4[nH]nc(Br)c34)CC2)c1 [Entry 223, 3-[4-(3-bromo-1H-pyrazolo[3,4-d]pyrimidin-4-yl)piperazin-1-yl]-2-methyl-5-{[2-(methyl-oxy)ethyl]oxy}-N-(2-pyrrolidin-1-ylethyl)aniline] | 0.1 to 1 µM | < 0.1 µM | – | –
10 | CCc1n[nH]c2ncnc(N3CCN(c4cc(Cl)c(OCCCN(C)C)cc4C)CC3)c12 [Entry 388, 3-({2-chloro-4-[4-(3-ethyl-1H-pyrazolo[3,4-d]pyrimidin-4-yl)piperazin-1-yl]-5-methylphenyl}oxy)-N,N-dimethylpropan-1-amine] | – | – | 1 to 10 µM | 0.1 to 1 µM
11 | Cc1ccc(Cl)cc1N1CCN(c2ncnc3[nH]nc(/C=C4/C[C@H]5CNC[C@H]5C4)c23)CC1 [Entry 396, 4-[4-(5-chloro-2-methylphenyl)piperazin-1-yl]-3-[(E)-(3aR,6aS)-hexahydrocyclopenta[c]pyrrol-5(1H)-ylidenemethyl]-1H-pyrazolo[3,4-d]pyrimidine] | – | – | 1 to 10 µM | 1 to 10 µM
12 | CCN(CC)CCCOc1nc(Cl)c(C)c(N2CCN(c3ncnc4[nH]nc(Br)c34)CC2)n1 [Entry 173, 3-({4-[4-(3-bromo-1H-pyrazolo[3,4-d]pyrimidin-4-yl)piperazin-1-yl]-6-chloro-5-methylpyrimidin-2-yl}oxy)-N,N-diethylpropan-1-amine] | 1 to 10 µM | 0.1 to 1 µM | – | –
13 | Cc1c(CCCN2CCCCC2)cc(Cl)cc1N1CCN(c2ncnc3[nH]nc(C(F)(F)F)c23)CC1 [Entry 100, 4-{4-[5-chloro-2-methyl-3-(3-piperidin-1-ylpropyl)phenyl]piperazin-1-yl}-3-(trifluoromethyl)-1H-pyrazolo[3,4-d]pyrimidine] | 0.1 to 1 µM | < 0.1 µM | – | –
14 | Cc1c(OCCCN2CCN(C)CC2)cc(Cl)cc1N1CCN(c2ncnc3[nH]nc(C(F)(F)F)c23)CC1 [Entry 70, 4-[4-(5-chloro-2-methyl-3-{[3-(4-methylpiperazin-1-yl)propyl]oxy}phenyl)piperazin-1-yl]-3-(trifluoromethyl)-1H-pyrazolo[3,4-d]pyrimidine] | 0.1 to 1 µM | < 0.1 µM | – | –

Results, then the compound that gave them:

Row | IC50 (AktK; Table 1, class symbols per key) | IC50 (p70S6K; Table 1, class symbols per key) | IC50 (AktK) | IC50 (p70S6K) | SMILES
15 | 0.1 to 1 µM | < 0.1 µM | – | – | Cc1ccc(C(=O)Nc2ccccc2)cc1N1CCN(c2ncnc3[nH]nc(Br)c23)C[C@@H]1C [Entry 177, 3-[(2S)-4-(3-bromo-1H-pyrazolo[3,4-d]pyrimidin-4-yl)-2-methylpiperazin-1-yl]-4-methyl-N-phenylbenzamide]
16 | 0.1 to 1 µM | < 0.1 µM | – | – | CCN(CC)CCCOc1cc(Cl)cc(N2CCN(c3ncnc4[nH]nc(C(F)(F)F)c34)CC2)c1C [Entry 56, 3-[(5-chloro-2-methyl-3-{4-[3-(trifluoromethyl)-1H-pyrazolo[3,4-d]pyrimidin-4-yl]piperazin-1-yl}phenyl)oxy]-N,N-diethylpropan-1-amine]
17 | – | – | 1 to 10 µM | 1 to 10 µM | Cc1nc(N2CCN(c3cc(Cl)ccc3C)CC2)c2cn[nH]c2n1 [Entry 324, 4-[4-(5-chloro-2-methylphenyl)piperazin-1-yl]-6-methyl-1H-pyrazolo[3,4-d]pyrimidine]
18 | 0.1 to 1 µM | < 0.1 µM | – | – | Cc1c(OCCN2CCCCC2)cc(Cl)cc1N1CCN(c2ncnc3[nH]nc(Br)c23)CC1 [Entry 20, 3-bromo-4-(4-{5-chloro-2-methyl-3-[(2-piperidin-1-ylethyl)oxy]phenyl}piperazin-1-yl)-1H-pyrazolo[3,4-d]pyrimidine]
19 | < 0.1 µM | < 0.1 µM | – | – | Cc1ccc(C(=O)Nc2ccccc2)cc1N1CCN(c2ncnc3[nH]nc(Br)c23)C[C@@H]1CO [Entry 200, 3-[(2R)-4-(3-bromo-1H-pyrazolo[3,4-d]pyrimidin-4-yl)-2-(hydroxymethyl)piperazin-1-yl]-4-methyl-N-phenylbenzamide]
20 | < 0.1 µM | < 0.1 µM | – | – | CCCC(=O)c1cc(NCCN2CCCC2)cc(N2CCN(c3ncnc4[nH]nc(Br)c34)CC2)c1 [Entry 283, 1-{3-[4-(3-bromo-1H-pyrazolo[3,4-d]pyrimidin-4-yl)piperazin-1-yl]-5-[(2-pyrrolidin-1-ylethyl)amino]phenyl}butan-1-one]
21 | < 0.1 µM | < 0.1 µM | – | – | Cc1c(NCCN2CCCC2)cc(C(=O)Nc2ccccc2Cl)cc1N1CCN(c2ncnc3[nH]nc(Br)c23)CC1 [Entry 204, 3-[4-(3-bromo-1H-pyrazolo[3,4-d]pyrimidin-4-yl)piperazin-1-yl]-N-(2-chlorophenyl)-4-methyl-5-[(2-pyrrolidin-1-ylethyl)amino]benzamide]
22 | < 0.1 µM | < 0.1 µM | – | – | CCN1CCN(CCOc2cc(Cl)cc(N3CCN(c4ncnc5[nH]nc(Br)c45)CC3)c2C)CC1 [Entry 74, 3-bromo-4-[4-(5-chloro-3-{[2-(4-ethylpiperazin-1-yl)ethyl]oxy}-2-methylphenyl)piperazin-1-yl]-1H-pyrazolo[3,4-d]pyrimidine]

Source: patent US8076338B2, “Kinase modulators and methods of use” (Exelixis, Inc., priority 2004, dated 2011)
